# Measured values reported in article PMC4907212, “Mucosal and blood-brain barrier transport kinetics of the plant N-alkylamide spilanthol using in vitro and in vivo models” (BMC Complementary and Alternative Medicine, 2016).
# Where two headings read alike, the source gives them in different places.
# What was measured:
# [1] = Pharmacokinetic oral gavage experiment in rats (serum spilanthol, one compartmental model); assay type: in vivo, Wistar rats; conditions: for half-life: 1.5 ml of 0.73 mg spilanthol/g dose solution, read-out: elimination half-life (converted)
# Description: The Wistar rats were bred in Bharat Serum and Vaccines pvt. Ltd, Thane, India (registration number 103/99/CPCSEA) and kept for the experiments at C. U. Shah College of Pharmacy, SNDT Women’s University, Santacruz, Mumbai, India (registration number 39/99/CPCSEA). The half of the rats used in the experiment were female rats and the other half male rats. Rats of 7-8 weeks old, weighing 220 g, and fasted overnight were used for the experiment.
# The pharmacokinetic oral gavage experiment was carried out at C. U. Shah College of Pharmacy, SNDT Women’s University, Santacruz, Mumbai, India. A spilanthol dose solution was prepared with the Spilanthes acmella (L.) L. extract (A.Vogel). 1.5 ml of a spilanthol dose solution of 0.73 mg spilanthol/g dose solution in 10:20:30:40 (w/w/w/w) ethanol:PG:vitamin E-TPGS:PEG400 was administered to the rats using a gavage needle made up of stainless steel (length 3 inches and 2.5 mm internal diameter). A blank dose solution was used as well, containing ethanol, PG, vitamin E-TPGS and PEG without spilanthol. For each dose solution, six rats were used of which three were females and three males. Blood was collected (1.5 ml) from the retro orbital vein at specified time points i.e. 1, 2, 3, 4, 6, and 8 h after oral administration of the dose solution. The collected blood samples were centrifuged using a Remi R-24 centrifuge. At the end of the study, the animals were sacrificed by CO2 inhalation. All samples were immediately frozen at -80 °C until bio-analysis. The elimination rate constant was calculated using a one compartmental model using GraphPad software (La Jolla, USA), using the following equation: Ct=C0×e^−ke×t , in which t is time (h), C0 the concentration of spilanthol at time t = 0 (ng/ml), C(t) the concentration of spilanthol at time t and ke the elimination rate constant (h^−1). The elimination half-life (h) is computed as ln(2)/ke.
# 60 μl of the serum samples, 60 μl of 4 % (V/V) aqueous H3PO4 solution and 30 μl of the IS solution were transferred into a 0.5 ml (LoBind Eppendorf) tube and vortexed. Interfering compounds were removed by solid phase extraction using a positive pressure-96 processor (Waters). […] After the loading step, the HLB Oasis® μelution plate was washed using 200 μl of 5 % MeOH in H2O followed by 200 μl of 20 % MeOH in H2O. Spilanthol was eluted using two times 25 μl ACN. To the eluate, 25 μl of a 80:20 (V/V) H2O:MeOH solution was added and analysed with a UPLC-MS^2 method, as further described.
# [2] = parameters: method as in PMID 24055064; conditions: source not stated; cited from earlier work
# blood-brain barrier = experiment: Blood-to-brain transport, in vivo multiple time regression (MTR) analysis; conditions: mice
# Description: Female, Institute for Cancer Research, Caesarean Derived-1 (ICR-CD-1) mice (Harlan Laboratories, Venray, Netherlands) of age 7–10 weeks and weighing 29–32 g, were used during the BBB transport experiments.
# An in vivo multiple time regression (MTR) analysis was performed to investigate if spilanthol was able to cross the BBB. A dose solution of spilanthol was prepared using the Spilanthes acmella (L.) L. extract (Robertet) with a final concentration of 4 mg/ml spilanthol dissolved in 7.0 % ethanol, 2.5 % dimethylacetamide, 0.6 % tween 80 (all w/w) diluted in lactated Ringer’s solution containing 1 % BSA. The ICR-CD-1 mice were anesthetized by intraperitoneal injection with a 40 % (w/V) urethane solution (3 g/kg) and the jugular internalis vein and carotid artery were isolated, 20 μl of the spilanthol dose solution was injected into the jugular vein. Blood was obtained from the carotid artery at regular time points after injection (1, 3, 5, 10, 12.5 and 15 min, with start and end in duplicate), and the mice were immediately thereafter decapitated. After sacrificing the mice, the brains were collected. The collected blood from the carotid artery was centrifuged at 10 000 g for 15 min at 21 °C, resulting in serum. […]
# [3] = Capillary depletion (distribution brain parenchyma versus capillaries); assay type: in vivo, ICR-CD-1 mice; conditions: female, ICR-CD-1, mouse, iv, 80 μg per mouse, mice, 10 min after i.v. injection
# Description: To investigate the distribution of spilanthol in the parenchyma and capillaries of the brain, a capillary depletion experiment was performed. By means of this experiment, it is possible to distinguish the transport of spilanthol into the brain (represented by the parenchyma) and part of spilanthol which is trapped by the endothelial cells of the brain (represented by the capillaries). The method of Triguero et al., as modified by Gutierrez et al., was used. Briefly, after anesthetizing the mice intraperitoneally with 40 % (w/V) urethane solution (3 g/kg), 20 μl of the 4 mg/ml spilanthol dose solution was injected into the jugular vein. Blood was collected from the abdominal aorta ten min after injection and serum was obtained by centrifuging the blood at 10 000 g during 15 min at 21 °C. Immediately after blood collection, the skin of the mice’s chest is removed to clamp the aorta and the jugular veins are severed. Immediately after clamping the aorta, the brain is perfused manually with 20 ml of Lactated Ringer’s solution. […]
# The distribution was calculated as follows: Fraction%=Mtissue/Mcapillaries+Mparenchyma×100 where Mtissue represents the amount of spilanthol in the capillaries, respectively parenchyma; Mcapillaries the amount of spilanthol in the capillaries and Mparenchyma the amount of spilanthol in the parenchyma.
# [4] = parameters: method as in PMID 20227845, PMID 19808085, PMID 23583736; conditions: human skin, topical application; cited from earlier work
structure (smiles),measurement,setting,value
"C/C=C/C=C\CC/C=C/C(=O)NCC(C)C [spilanthol, deca-2E,6Z,8E-trienoic acid isobutylamide]",k el,"[1]; both sexes, Wistar, rat, serum, po, 0.73 mg, oral gavage of 1.5 ml of 0.73 mg spilanthol/g dose solution (A. Vogel extract), one compartmental model, read-out: elimination rate constant ke (converted)",0.000167 s⁻¹
same,half-life,"[1]; both sexes, Wistar, rat, serum, po, oral gavage (discussion, in brackets)",1.05 h
same,half-life,"[1]; both sexes, Wistar, rat, serum, po, oral gavage, ln(2)/ke",1.13 h
same,elimination rate constant ke,"[1]; rat serum, oral gavage of 1.5 ml of 0.73 mg spilanthol/g dose solution (A. Vogel extract), one compartmental model",0.61 h⁻¹
same,LogP,[2],3.39
same,toxicity during the experiment,"blood-brain barrier; i.v. spilanthol dose solution with ethanol, dimethylacetamide, tween 80",no toxicity was observed
same,exposure time at which brain/serum ratio curve reached a plateau-phase,"blood-brain barrier; i.v., MTR",about 10 min
same,Kp at 10 min,"[3]; brain capillaries/serum, read-out: spilanthol in brain capillaries (brain/serum ratio)",0.0024
same,Kp at 10 min,"[3]; brain parenchyma/serum, read-out: spilanthol in brain parenchyma (brain/serum ratio)",0.138
same,"permeability coefficient Kp,aq",[4],0.919 ×10⁻⁶ cm/s
